The target in this assay is T1, KLHL37 (Homo sapiens, UniProt O14682).
T1 construct: gene ENC1; recombinant KLHL37-His (full-length cDNA, pET-28a, E. coli)
T1 sequence (O14682 1-589): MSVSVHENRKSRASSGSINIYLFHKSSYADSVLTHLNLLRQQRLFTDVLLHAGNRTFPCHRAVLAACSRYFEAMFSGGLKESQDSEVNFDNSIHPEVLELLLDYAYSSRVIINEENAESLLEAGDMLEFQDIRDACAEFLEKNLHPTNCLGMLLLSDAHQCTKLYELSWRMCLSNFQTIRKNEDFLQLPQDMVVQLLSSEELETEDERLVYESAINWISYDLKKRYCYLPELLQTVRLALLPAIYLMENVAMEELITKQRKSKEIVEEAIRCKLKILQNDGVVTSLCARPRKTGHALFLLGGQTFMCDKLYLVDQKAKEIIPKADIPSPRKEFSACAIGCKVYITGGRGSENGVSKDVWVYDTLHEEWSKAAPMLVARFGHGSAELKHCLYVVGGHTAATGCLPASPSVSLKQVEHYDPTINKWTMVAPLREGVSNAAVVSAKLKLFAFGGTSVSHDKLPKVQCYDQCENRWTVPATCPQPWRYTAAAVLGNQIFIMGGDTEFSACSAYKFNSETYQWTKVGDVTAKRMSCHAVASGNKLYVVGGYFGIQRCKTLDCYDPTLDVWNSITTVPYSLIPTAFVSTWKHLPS
Kind of assay: SPR (Biacore X100, KLHL37-His immobilized on CM5 chip). The format is binding. A general note: SPR reads the build-up and loss of mass on a sensor chip optically.

pKd: −log10 of the molar value.

For the compound `CC1(C)CC[C@]2(NC(=O)C(C)(F)F)CC[C@]3(C)[C@H](C(=O)C=C4[C@@]5(C)C=C(C#N)C(=O)C(C)(C)[C@@H]5CC[C@]43C)[C@@H]2C1` [RTA-408], the pKd (in general, the negative decadic logarithm of the Kd, by convention in mol/L) was 4.82.

These data come from publication PMC12259267, “Disruption of the KLHL37–N-Myc complex restores N-Myc degradation and arrests neuroblastoma growth in mouse models” (The Journal of Clinical Investigation, 2025).
